These molecules were tested against human GlyT1c transporter (Homo sapiens (Human), UniProt P48067) (assay: Radioligand binding assay using recombinant CHO cell membranes expressing human GlyT1). Conditions: read-out: radioligand binding Kiapp.
Description: Biological Testing • 1. [^3H]-Glycine uptake into recombinant CHO cells expressing human GlyT1: Human GlyT1c expressing recombinant hGlyT1c—5_CHO cells were plated at 20,000 cells per well in 96 well Cytostar-T scintillation microplates (Amersham Biosciences) and cultured to sub-confluency for 24 h. For glycine uptake assays the culture medium was aspirated and the cells were washed once with 100 μl HBSS (Gibco BRL, #14025-050) with 5 mM L-Alanine (Merck #1007). 80 μl HBSS buffer were added, followed by 10 μl inhibitor or vehicle (10% DMSO) and 10 μl [^3H]-glycine (TRK71, Amersham Biosciences) to a final concentration of 200 nM for initiation of glycine uptake. The plates were placed in a Wallac Microbeta (PerkinElmer) and continuously counted by solid phase scintillation spectrometry during up to 3 hours. Nonspecific uptake was determined in the presence of 10 μM Org24598. IC50 calculations were made by four-parametric logistic nonlinear regression analysis (GraphPad Prism) using determinations within the range of linear increase of [^3H]-glycine incorporation between 60 and 120 min. • 2. Radioligand binding assays using recombinant CHO cell membranes expressing human GlyT1:
Radioligand binding to human GlyT1c transporter-expressing membranes was determined as described in Mezler et al., Molecular Pharmacology 74:1705-1715, 2008.

Sequence of human GlyT1c transporter (P48067 whole entry): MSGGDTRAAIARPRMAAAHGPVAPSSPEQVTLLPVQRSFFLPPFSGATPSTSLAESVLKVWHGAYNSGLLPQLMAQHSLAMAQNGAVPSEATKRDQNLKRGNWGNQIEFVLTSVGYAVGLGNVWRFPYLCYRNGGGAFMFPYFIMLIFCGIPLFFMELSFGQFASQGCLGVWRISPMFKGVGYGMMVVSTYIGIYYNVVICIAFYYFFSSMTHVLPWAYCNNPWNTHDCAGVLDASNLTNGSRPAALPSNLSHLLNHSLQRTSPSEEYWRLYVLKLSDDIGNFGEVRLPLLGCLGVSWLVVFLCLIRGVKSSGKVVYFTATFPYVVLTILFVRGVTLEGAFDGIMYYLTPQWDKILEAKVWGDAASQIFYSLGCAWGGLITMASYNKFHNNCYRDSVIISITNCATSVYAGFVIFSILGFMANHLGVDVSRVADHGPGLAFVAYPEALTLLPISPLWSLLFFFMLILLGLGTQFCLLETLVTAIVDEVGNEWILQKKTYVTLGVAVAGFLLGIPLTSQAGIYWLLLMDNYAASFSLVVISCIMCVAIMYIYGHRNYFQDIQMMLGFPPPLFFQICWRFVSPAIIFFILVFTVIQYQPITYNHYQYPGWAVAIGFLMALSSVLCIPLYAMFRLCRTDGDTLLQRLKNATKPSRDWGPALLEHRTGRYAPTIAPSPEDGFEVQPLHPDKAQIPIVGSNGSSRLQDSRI

| SMILES | Ki |
| --- | --- |
| CNC[C@@H]1CCc2ccc(OCCNS(=O)(=O)CC3CC3)cc2[C@@H]1Cc1ccccc1 (stereo in doubt) [Example 199, N-[2-(8-Benzyl-7-methylaminomethyl-5,6,7,8-tetrahydro-naphthalen-2-yloxy)-ethyl]-C-cyclopropyl-methanesulfonamide] | ≤ 100 nM |
| Cn1cnc(S(=O)(=O)NCCOc2ccc3c(c2)[C@H](Cc2ccccc2)[C@H](CN2CCC2)CC3)c1 (stereo in doubt) [Example 202, 1-Methyl-1H-imidazole-4-sulfonic acid [2-(7-azetidin-1-ylmethyl-8-benzyl-5,6,7,8-tetrahydro-naphthalen-2-yloxy)-ethyl]-amide] | ≤ 100 nM |
| CCS(=O)(=O)NCCOc1ccc2c(c1)[C@H](Cc1ccccc1)[C@H](CN1CCC1)CC2 (stereo in doubt) [Example 200, Ethanesulfonic acid [2-(7-azetidin-1-ylmethyl-8-benzyl-5,6,7,8-tetrahydro-naphthalen-2-yloxy)-ethyl]-amide] | ≤ 500 nM |
| NC[C@@H]1CCc2ccc(OCCNS(=O)(=O)CC3CC3)cc2[C@@H]1Cc1ccccc1 (stereo in doubt) [Example 196, N-[2-(7-Aminomethyl-8-benzyl-5,6,7,8-tetrahydro-naphthalen-2-yloxy)-ethyl]-C-cyclopropyl-methanesulfonamide] | ≤ 100 nM |
| Cn1cnc(S(=O)(=O)NCc2ccc3c(c2)[C@H](Cc2ccccc2)[C@H](CN2CCC2)CC3)c1 (stereo in doubt) [Example 203, 1-Methyl-1H-imidazole-4-sulfonic acid (7-azetidin-1-ylmethyl-8-benzyl-5,6,7,8-tetrahydro-naphthalen-2-ylmethyl)-amide] | ≤ 100 nM |

The next lines start with the values.

| Ki | SMILES |
| --- | --- |
| ≤ 100 nM | CCS(=O)(=O)NCCOc1ccc2c(c1)[C@H](Cc1ccccc1)[C@H](CNC)CC2 (stereo in doubt) [Example 198, Ethanesulfonic acid [2-(8-benzyl-7-methylaminomethyl-5,6,7,8-tetrahydro-naphthalen-2-yloxy)-ethyl]-amide] |
| ≤ 100 nM | O=S(=O)(CC1CC1)NCCOc1ccc2c(c1)[C@H](Cc1ccccc1)[C@H](CN1CCC1)CC2 (stereo in doubt) [Example 201, N-[2-(7-Azetidin-1-ylmethyl-8-benzyl-5,6,7,8-tetrahydro-naphthalen-2-yloxy)-ethyl]-C-cyclopropyl-methanesulfonamide] |
| ≤ 100 nM | CCS(=O)(=O)NCCOc1ccc2c(c1)[C@H](Cc1ccccc1)[C@H](CN)CC2 (stereo in doubt) [Example 195, Ethanesulfonic acid [2-(7-aminomethyl-8-benzyl-5,6,7,8-tetrahydro-naphthalen-2-yloxy)-ethyl]-amide] |

Reference: US9051280B2, “Tetraline and indane derivatives, pharmaceutical compositions containing them, and their use in therapy” (AbbVie Deutschland GmbH & Co. KG, priority 2010, dated 2015)
